Experiments:
human MR = target: T1, human MR (Homo sapiens, UniProt P08235); assay: Mineralocorticoid Receptor Binding Assay (Method 1), [3H]-aldosterone competition; conditions: 0.5 nM [3H]-aldosterone, human MR expressed in Sf9 cells
T1 construct: The full length human MR gene is cloned from a human kidney or human brain cDNA library; inferred from own knowledge of the pAcHLT vector (N); made in house; host or cells: Sf9 insect cells (baculovirus)
T1 sequence (P08235 1-984): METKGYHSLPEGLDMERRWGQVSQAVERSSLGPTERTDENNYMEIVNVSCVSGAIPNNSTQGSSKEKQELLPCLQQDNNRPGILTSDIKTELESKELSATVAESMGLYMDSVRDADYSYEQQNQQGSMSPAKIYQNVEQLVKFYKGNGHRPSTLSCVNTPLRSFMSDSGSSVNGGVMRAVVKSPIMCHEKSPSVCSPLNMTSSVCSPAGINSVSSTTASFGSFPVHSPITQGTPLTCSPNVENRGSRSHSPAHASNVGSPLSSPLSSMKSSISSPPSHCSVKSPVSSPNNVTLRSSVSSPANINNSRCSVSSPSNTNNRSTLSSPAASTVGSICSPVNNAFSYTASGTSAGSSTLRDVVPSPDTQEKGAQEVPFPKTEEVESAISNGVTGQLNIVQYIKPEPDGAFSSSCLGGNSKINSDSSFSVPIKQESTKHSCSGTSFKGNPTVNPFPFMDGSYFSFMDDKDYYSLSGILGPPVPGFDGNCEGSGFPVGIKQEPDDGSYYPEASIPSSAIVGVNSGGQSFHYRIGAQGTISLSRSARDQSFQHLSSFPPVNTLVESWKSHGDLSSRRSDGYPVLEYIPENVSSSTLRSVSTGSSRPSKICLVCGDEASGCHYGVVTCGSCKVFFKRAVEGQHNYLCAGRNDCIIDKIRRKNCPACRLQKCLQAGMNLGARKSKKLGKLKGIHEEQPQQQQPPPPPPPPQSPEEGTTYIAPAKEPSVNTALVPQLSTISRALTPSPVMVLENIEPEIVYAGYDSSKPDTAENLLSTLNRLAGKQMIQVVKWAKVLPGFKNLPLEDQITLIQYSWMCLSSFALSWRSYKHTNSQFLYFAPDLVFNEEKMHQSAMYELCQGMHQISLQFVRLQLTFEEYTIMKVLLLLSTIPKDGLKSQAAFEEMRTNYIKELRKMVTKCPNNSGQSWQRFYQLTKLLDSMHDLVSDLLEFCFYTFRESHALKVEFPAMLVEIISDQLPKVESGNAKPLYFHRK
Procedure, shortened: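 Full-length human MR expressed in Sf9 cells via baculovirus; lysate supernatant (about 20-25 μg protein) incubated with 0.5 nM [3H]-aldosterone and test compound for about 16 h at 4° C. Buffer was Tris/molybdate/phosphate/pyrophosphate with 10% glycerol, pH 7.5; filter-bound complex counted by scintillation.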

[1] = target: T2, human GR (glucocorticoid receptor) (Homo sapiens, UniProt P04150); assay: Alternative Binding Assay Protocol (Method 2), 293-GR lysate, 3H-dexamethasone competition; conditions: 0.3 nM 3H-dexamethasone
T2 construct: expressed in transfected cells; host or cells: 293 cells
T2 sequence (P04150 1-777): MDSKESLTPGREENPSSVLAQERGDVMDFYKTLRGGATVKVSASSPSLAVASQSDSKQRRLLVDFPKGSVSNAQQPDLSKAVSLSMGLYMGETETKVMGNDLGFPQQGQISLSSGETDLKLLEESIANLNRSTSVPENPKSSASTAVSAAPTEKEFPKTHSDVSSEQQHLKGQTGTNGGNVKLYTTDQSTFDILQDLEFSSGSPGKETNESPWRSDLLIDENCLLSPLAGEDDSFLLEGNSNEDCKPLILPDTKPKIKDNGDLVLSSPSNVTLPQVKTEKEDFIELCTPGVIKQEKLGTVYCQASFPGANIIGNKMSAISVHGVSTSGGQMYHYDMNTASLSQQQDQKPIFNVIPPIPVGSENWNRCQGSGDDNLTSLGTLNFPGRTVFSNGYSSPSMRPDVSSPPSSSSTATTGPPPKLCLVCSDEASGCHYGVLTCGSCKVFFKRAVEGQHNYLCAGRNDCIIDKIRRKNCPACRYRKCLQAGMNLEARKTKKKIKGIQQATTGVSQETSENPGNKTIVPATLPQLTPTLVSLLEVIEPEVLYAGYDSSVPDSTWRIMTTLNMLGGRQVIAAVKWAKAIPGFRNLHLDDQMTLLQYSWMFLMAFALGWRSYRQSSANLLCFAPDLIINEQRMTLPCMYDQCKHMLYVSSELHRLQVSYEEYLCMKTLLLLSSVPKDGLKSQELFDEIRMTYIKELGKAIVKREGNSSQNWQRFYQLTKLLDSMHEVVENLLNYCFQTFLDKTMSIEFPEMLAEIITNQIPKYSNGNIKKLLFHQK
Experimental: Alternative Binding Assay Protocol for MR, GR, AR, and PR (Method 2):
Cell lysates from 293 cells overexpressing human GR (glucocorticoid receptor), AR (androgen receptor), MR (mineralocorticoid receptor) or PR (progesterone-receptor) are used for competition binding assays to determine Ki values for test compounds. […] Competing compounds are added at various concentraions in half-log increments. Non-specific binding is determined in the presence of 500 nM dexamethasone for GR binding, 500 nM aldosterone for MR binding, or 500 nM methyltrienolone for AR and PR binding. The binding reaction (140 μl) is incubated for overnight at 4° C., then 70 μl of cold charcoal-dextran buffer (containing per 50 ml of assay buffer, 0.75 g of charcoal and 0.25 g of dextran) is added to each reaction. Plates are mixed 8 minutes on an orbital shaker at 4° C. Plates are then centrifuged at 3,000 rpm at 4° C. for 10 minutes. An aliquot of 120 μl of the mix is transferred to another 96-well plate and 175 μl of Wallac Optiphase “Hisafe 3” scintillation fluid is added to each well. Plates are sealed and shaken vigorously on an orbital shaker. After an incubation of 2 hrs, plates are read in a Wallac Microbeta counter. […] The Kd for ^3H-dexamethasone for GR binding, ^3H-methyltrienolone for AR binding, ^3H-aldosterone for MR binding, or ^3H-methyltrienolone for PR binding, is determined by saturation binding. The IC50 values for compounds are converted to Ki using Cheng-Prusoff equation and the Kd determined by saturation binding assay.

Row | Structure (SMILES) | melting point | Ki (human MR) [nM] | Ki [1] [nM]
1 | CCC(CC)(c1ccc2c(ccn2C(C)=O)c1)c1c[nH]c2c(NS(C)(=O)=O)cccc12 [Example 156, N-{3-[1-(1-Acetyl-1H-indol-5-yl)-1-ethyl-propyl]-1H-indol-7-yl}-methanesulfonamide] | 125 to 130 °C |  | 
2 | CCC(CC)(c1ccc2oc(C)nc2c1)c1c[nH]c2c(NS(C)(=O)=O)cccc12 [Example 145, N-{3-[1-Ethyl-1-(2-methyl-benzooxazol-5-yl)-propyl]-1H-indol-7-yl}-methanesulfonamide] | 152 to 160 °C |  | 
3 | CCC(CC)(c1ccc2oc(C)cc2c1)c1c[nH]c2c(NS(C)(=O)=O)cccc12 [Example 155, N-{3-[1-Ethyl-1-(2-methyl-benzofuran-5-yl)-propyl]-1H-indol-7-yl}-methanesulfonamide] | 100 to 105 °C |  | 
4 | CCC(CC)(c1ccc2sc(NC(C)=O)nc2c1)c1c[nH]c2c(NS(C)(=O)=O)cccc12 [Example 150, N-{5-[1-Ethyl-1-(7-methanesulfonylamino-1H-indol-3-yl)-propyl]-benzothiazol-2-yl}-acetamide] | 266 to 268 °C |  | 
5 | CCC(CC)(c1cccc2oc(C)cc12)c1c[nH]c2c(NS(C)(=O)=O)cccc12 [Example 160, N-{3-[1-Ethyl-1-(2-methyl-benzofuran-4-yl)-propyl]-1H-indol-7-yl}-methanesulfonamide] | 85 to 90 °C |  | 
6 | CCC(CC)(c1ccc2nc(C(F)(F)F)[nH]c2c1)c1c[nH]c2c(NS(C)(=O)=O)cccc12 [Example 151, N-{3-[1-Ethyl-1-(2-trifluoromethyl-3H-benzoimidazol-5-yl)-propyl]-1H-indol-7-yl}-methanesulfonamide] | 225 to 235 °C |  | 
7 | CCC(CC)(c1ccc2c(c1)nc(C)n2C)c1c[nH]c2c(NS(C)(=O)=O)cccc12 [Example 162, N-{3-[1-(1,2-Dimethyl-1H-benzoimidazol-5-yl)-1-ethyl-propyl]-1H-indol-7-yl}-methanesulfonamide] | 275 to 278 °C |  | 
8 | CCC(CC)(c1ccc2nc(NC(C)=O)sc2c1)c1c[nH]c2c(NS(C)(=O)=O)cccc12 [Example 199] |  | < 1000 | < 500
9 | CCC(CC)(c1ccc2nc(N)sc2c1)c1c[nH]c2c(NS(C)(=O)=O)cccc12 [Example 144, N-{3-[1-(2-Amino-benzothiazol-6-yl)-1-ethyl-propyl]-1H-indol-7-yl}-methanesulfonamide] | 155 to 160 °C | < 500 | 
10 | CCC(CC)(c1ccc2oc(C)cc2c1)c1c[nH]c2c(NS(C)(=O)=O)cccc12 [Example 181] |  | < 500 | < 500
11 | CCC(CC)(c1ccc2ncsc2c1)c1c[nH]c2c(NS(C)(=O)=O)cccc12 [Example 149, N-[3-(1-Benzothiazol-6-yl-1-ethyl-propyl)-1H-indol-7-yl]-methanesulfonamide] | 117 to 120 °C | < 500 | 
12 | C[C@@](c1ccc(Cl)cc1)(c1c[nH]c2c(NS(C)(=O)=O)cccc12)C1CC1 [Example 174] |  | < 500 | < 500
13 | CC(c1ccc(Cl)cc1)(c1c[nH]c2c(NS(C)(=O)=O)cccc12)C1CC1 (stereo not drawn) [Example 167] |  | < 500 | < 500
14 | CCC(CC)(c1ccc(N2CCOCC2)cc1)c1c[nH]c2c(NS(C)(=O)=O)cccc12 [Example 197] |  | < 500 | < 500
15 | C[C@@](c1ccccc1F)(c1c[nH]c2c(NS(C)(=O)=O)cccc12)C1CC1 [Example 180] |  | < 500 | < 500
16 | CC(c1ccccc1)(c1c[nH]c2c(NS(C)(=O)=O)cccc12)C1CC1 (stereo not drawn) [Example 178] |  | < 500 | < 500
17 | CCC(CC)(c1ccc2sc(C)nc2c1)c1c[nH]c2c(NS(C)(=O)=O)cccc12 [Example 140, N-{3-[1-Ethyl-1-(2-methyl-benzothiazol-5-yl)-propyl]-1H-indol-7-yl}-methanesulfonamide] | 112 to 117 °C |  | 
18 | CCCC(c1ccc(F)cc1)(c1c[nH]c2c(NS(C)(=O)=O)cccc12)C1CC1 (stereo not drawn) [Example 179] |  | < 500 | < 500

Now from value to compound:

Row | melting point | Ki (human MR) [nM] | Ki [1] [nM] | Structure (SMILES)
19 | 105 to 115 °C (dec.) | < 500 |  | CCC(CC)(c1ccc2scnc2c1)c1c[nH]c2c(NS(C)(=O)=O)cccc12 [Example 142, N-[3-(1-Benzothiazol-5-yl-1-ethyl-propyl)-1H-indol-7-yl]-methanesulfonamide]
20 | 115 to 120 °C | < 500 |  | CCC(CC)(c1ccc2[nH]ccc2c1)c1c[nH]c2c(NS(C)(=O)=O)cccc12 [Example 157, N-{3-[1-Ethyl-1-(1H-indol-5-yl)-propyl]-1H-indol-7-yl}-methanesulfonamide]
21 |  | < 500 | < 500 | CCCCC(c1ccc(F)cc1)(c1c[nH]c2c(NS(C)(=O)=O)cccc12)C1CC1 (stereo not drawn) [Example 185]
22 |  | < 500 | < 500 | CC(c1ccc2c(c1)OCO2)(c1c[nH]c2c(NS(C)(=O)=O)cccc12)C1CC1 (stereo not drawn) [Example 175]
23 |  | < 500 | < 500 | CCC(CC)(c1ccc2nc(C)oc2c1)c1c[nH]c2c(NS(C)(=O)=O)cccc12 [Example 193]
24 |  | < 500 | < 500 | C[C@](c1ccc(F)cc1)(c1c[nH]c2c(NS(C)(=O)=O)cccc12)C1CC1 [Example 173]
25 |  | < 500 | < 500 | COc1ccc(C(C)(c2c[nH]c3c(NS(C)(=O)=O)cccc23)C2CC2)cc1 (stereo not drawn) [Example 170]
26 |  | < 500 | < 1000 | CCC(CC)(c1ccc2oc(C)nc2c1)c1c[nH]c2c(NS(C)(=O)=O)cccc12 [Example 191]
27 | 155 to 161 °C | < 500 |  | CCC(CC)(c1ccc2onc(N)c2c1)c1c[nH]c2c(NS(C)(=O)=O)cccc12 [Example 152, N-{3-[1-(3-Amino-benzo[d]isoxazol-5-yl)-1-ethyl-propyl]-1H-indol-7-yl}-methanesulfonamide]
28 |  | < 500 | < 500 | CC(c1ccccc1F)(c1c[nH]c2c(NS(C)(=O)=O)cccc12)C1CC1 (stereo not drawn) [Example 168]
